Results taken from ChEMBL document CHEMBL1155531, “Structure guided design of 5-arylindazole glucocorticoid receptor agonists and antagonists” (J Med Chem, 2010).
One block for each compound: values may come before it.

Columns and labels:
Glucocorticoid receptor [1] = biological target: T1, Glucocorticoid receptor (Homo sapiens, UniProt P04150); assay: Activity at GR in human A549 cells by NF-kappaB transrepression assay; type: cell-based
T1 sequence (P04150 whole entry): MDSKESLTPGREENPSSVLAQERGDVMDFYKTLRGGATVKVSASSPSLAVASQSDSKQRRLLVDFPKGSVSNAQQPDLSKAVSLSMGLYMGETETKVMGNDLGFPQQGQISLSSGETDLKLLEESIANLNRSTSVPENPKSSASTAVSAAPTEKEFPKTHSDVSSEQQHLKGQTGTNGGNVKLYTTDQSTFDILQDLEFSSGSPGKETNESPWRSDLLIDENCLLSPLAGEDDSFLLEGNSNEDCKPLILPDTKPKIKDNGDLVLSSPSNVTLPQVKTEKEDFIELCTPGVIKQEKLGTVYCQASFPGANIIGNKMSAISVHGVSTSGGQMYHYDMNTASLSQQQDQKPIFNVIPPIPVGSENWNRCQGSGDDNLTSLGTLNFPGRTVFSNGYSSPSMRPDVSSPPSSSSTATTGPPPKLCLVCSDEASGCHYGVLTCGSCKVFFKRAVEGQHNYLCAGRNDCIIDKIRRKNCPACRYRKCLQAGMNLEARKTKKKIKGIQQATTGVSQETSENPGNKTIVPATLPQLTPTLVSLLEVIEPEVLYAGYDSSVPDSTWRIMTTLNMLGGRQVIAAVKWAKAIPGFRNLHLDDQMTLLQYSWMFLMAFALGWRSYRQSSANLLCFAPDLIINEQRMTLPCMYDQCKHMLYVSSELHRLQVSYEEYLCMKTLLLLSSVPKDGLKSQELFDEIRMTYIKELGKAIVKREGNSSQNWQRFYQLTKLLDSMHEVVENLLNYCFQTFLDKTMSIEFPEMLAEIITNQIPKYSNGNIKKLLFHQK

Progesterone receptor = biological target: T2, Progesterone receptor (Homo sapiens, UniProt P06401); assay: Binding affinity to PR
T2 sequence (P06401 whole entry): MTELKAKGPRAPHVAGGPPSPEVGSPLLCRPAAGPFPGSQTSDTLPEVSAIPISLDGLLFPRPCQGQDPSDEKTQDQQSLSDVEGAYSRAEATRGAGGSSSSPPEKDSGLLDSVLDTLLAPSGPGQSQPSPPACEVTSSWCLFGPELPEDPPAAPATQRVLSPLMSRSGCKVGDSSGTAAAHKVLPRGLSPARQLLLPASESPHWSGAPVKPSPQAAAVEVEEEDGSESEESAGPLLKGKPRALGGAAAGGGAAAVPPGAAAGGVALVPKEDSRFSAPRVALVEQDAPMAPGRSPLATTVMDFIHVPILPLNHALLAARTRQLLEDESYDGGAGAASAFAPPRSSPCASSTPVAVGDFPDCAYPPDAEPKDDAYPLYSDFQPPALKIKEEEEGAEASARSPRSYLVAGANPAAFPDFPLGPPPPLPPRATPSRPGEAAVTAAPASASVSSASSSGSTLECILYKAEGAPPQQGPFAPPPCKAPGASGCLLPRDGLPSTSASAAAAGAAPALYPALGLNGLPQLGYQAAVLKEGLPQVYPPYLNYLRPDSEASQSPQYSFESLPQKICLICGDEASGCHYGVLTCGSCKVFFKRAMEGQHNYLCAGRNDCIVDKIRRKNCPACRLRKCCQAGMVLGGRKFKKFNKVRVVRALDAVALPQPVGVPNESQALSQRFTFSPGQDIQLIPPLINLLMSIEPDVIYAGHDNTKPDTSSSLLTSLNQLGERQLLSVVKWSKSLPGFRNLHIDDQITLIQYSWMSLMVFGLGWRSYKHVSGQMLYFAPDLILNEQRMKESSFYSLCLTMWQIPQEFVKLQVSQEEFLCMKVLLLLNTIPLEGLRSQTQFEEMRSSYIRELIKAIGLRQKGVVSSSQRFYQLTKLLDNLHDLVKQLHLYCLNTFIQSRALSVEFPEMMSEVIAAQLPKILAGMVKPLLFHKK

Glucocorticoid receptor [2] = biological target: T1, Glucocorticoid receptor; assay: Displacement of fluorescent-labeled Dexamethasone from GR by fluorescent polarization assay
Glucocorticoid receptor [3] = biological target: T1, Glucocorticoid receptor; assay: Agonist activity at GR in human A549 cells transfected with luciferase gene linked to MMTV promoter assessed as luciferase transactivation activity after 24 hrs; type: functional, cell-based
Androgen receptor = biological target: T3, Androgen receptor (Homo sapiens, UniProt P10275)
T3 sequence (P10275 whole entry): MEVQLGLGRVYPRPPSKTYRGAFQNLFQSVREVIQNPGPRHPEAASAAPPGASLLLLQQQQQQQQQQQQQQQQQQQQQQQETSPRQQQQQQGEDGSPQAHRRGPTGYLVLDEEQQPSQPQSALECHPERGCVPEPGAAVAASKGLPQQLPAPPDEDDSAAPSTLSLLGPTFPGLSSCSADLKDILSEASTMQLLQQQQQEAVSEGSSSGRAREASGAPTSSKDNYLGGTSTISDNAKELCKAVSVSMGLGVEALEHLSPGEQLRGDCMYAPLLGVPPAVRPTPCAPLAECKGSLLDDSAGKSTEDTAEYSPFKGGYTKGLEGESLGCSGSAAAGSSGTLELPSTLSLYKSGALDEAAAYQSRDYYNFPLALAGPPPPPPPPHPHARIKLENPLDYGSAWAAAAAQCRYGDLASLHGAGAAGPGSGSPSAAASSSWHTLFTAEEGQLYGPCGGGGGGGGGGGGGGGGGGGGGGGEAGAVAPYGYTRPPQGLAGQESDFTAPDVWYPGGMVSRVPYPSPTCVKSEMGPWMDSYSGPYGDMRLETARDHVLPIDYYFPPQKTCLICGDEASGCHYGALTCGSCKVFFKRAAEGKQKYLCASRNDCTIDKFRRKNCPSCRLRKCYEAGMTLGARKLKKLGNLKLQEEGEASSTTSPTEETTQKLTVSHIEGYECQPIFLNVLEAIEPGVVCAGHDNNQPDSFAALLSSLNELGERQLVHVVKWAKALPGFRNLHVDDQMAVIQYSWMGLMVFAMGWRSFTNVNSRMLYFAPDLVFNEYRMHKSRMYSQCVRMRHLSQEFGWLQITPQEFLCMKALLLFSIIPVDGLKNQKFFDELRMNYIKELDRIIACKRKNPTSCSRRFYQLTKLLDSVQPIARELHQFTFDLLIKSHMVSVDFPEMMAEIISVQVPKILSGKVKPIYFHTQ

[4] = Relative plasma concentration in mouse assessed as ratio of plasma concentration in mouse at 1 mg/kg, po to IC50 for NF-kappaB transrepression activity in A549 cells expressing MMTV reporter gene; type: ADME, organism-based; design: dose 1 mg/kg, route oral; conditions: in vivo
[5] = Antiinflammatory activity in human primary synovial fibroblasts assessed as inhibition of IL1-induced IL6 release after 18 hrs by MSD technology; type: functional
Mus musculus [6] = assay: Inhibition of IL1-induced circulating IL6 release in mouse at 10 mg/kg, po; type: functional
[7] = Relative fraction unbound in mouse assessed as ratio of fraction unbound in mouse at 0.1 mg/kg, po to IC50 for NF-kappaB transrepression activity in A549 cells expressing MMTV reporter gene; type: ADME, organism-based; design: dose 0.1 mg/kg, route oral; conditions: in vivo
[8] = Relative plasma concentration in mouse assessed as ratio of plasma concentration in mouse at 10 mg/kg, po to IC50 for NF-kappaB transrepression activity in A549 cells expressing MMTV reporter gene; type: ADME, organism-based; design: dose 10 mg/kg, route oral; conditions: in vivo
[9] = Relative plasma concentration in mouse assessed as ratio of plasma concentration in mouse at 0.01 mg/kg, po to IC50 for NF-kappaB transrepression activity in A549 cells expressing MMTV reporter gene; type: ADME, organism-based; design: dose 0.01 mg/kg, route oral; conditions: in vivo
Mus musculus [10] = assay: Inhibition of IL1-induced circulating IL6 release in mouse at 1 mg/kg, po; type: functional
[11] = Relative fraction unbound in mouse assessed as ratio of fraction unbound in mouse at 0.01 mg/kg, po to IC50 for NF-kappaB transrepression activity in A549 cells expressing MMTV reporter gene; type: ADME, organism-based; design: dose 0.01 mg/kg, route oral; conditions: in vivo
[12] = Relative plasma concentration in mouse assessed as ratio of plasma concentration in mouse at 0.1 mg/kg, po to IC50 for NF-kappaB transrepression activity in A549 cells expressing MMTV reporter gene; type: ADME, organism-based; design: dose 0.1 mg/kg, route oral; conditions: in vivo
Mus musculus [13] = assay: Inhibition of IL1-induced circulating IL6 release in mouse at 0.1 mg/kg, po; type: functional
[14] = Plasma concentration in mouse bearing mouse NIH-3T3 cells integrated with MMTV reporter gene at 1 mg/kg, po after 1 hr; type: ADME, organism-based, NIH3T3; design: dose 1 mg/kg, route oral
[15] = Plasma concentration in mouse bearing mouse NIH-3T3 cells integrated with MMTV reporter gene at 0.01 mg/kg, po after 1 hr; type: ADME, organism-based, NIH3T3; design: dose 0.01 mg/kg, route oral
[16] = Relative fraction unbound in mouse assessed as ratio of fraction unbound in mouse at 1 mg/kg, po to IC50 for NF-kappaB transrepression activity in A549 cells expressing MMTV reporter gene; type: ADME, organism-based; design: dose 1 mg/kg, route oral; conditions: in vivo
[17] = Antiinflammatory activity in human primary synovial fibroblasts assessed as inhibition of IL1-induced MMP1 release after 18 hrs by MSD technology; type: functional
Mus musculus [18] = assay: Inhibition of IL1-induced circulating IL6 release in mouse at 0.01 mg/kg, po; type: functional
[19] = Toxicity in human skeletal muscle cells assessed as increase in glutamine synthase mRNA level after 18 hrs by PCR
Hepatocyte = assay: Toxicity in human hepatocytes assessed as increase in PEPCK mRNA level after 18 hrs by PCR; type: cell-based
[20] = Plasma concentration in mouse bearing mouse NIH-3T3 cells integrated with MMTV reporter gene at 0.1 mg/kg, po after 1 hr; type: ADME, organism-based, NIH3T3; design: dose 0.1 mg/kg, route oral
[21] = Relative fraction unbound in mouse assessed as ratio of fraction unbound in mouse at 10 mg/kg, po to IC50 for NF-kappaB transrepression activity in A549 cells expressing MMTV reporter gene; type: ADME, organism-based; design: dose 10 mg/kg, route oral; conditions: in vivo
[22] = Plasma concentration in mouse bearing mouse NIH-3T3 cells integrated with MMTV reporter gene at 10 mg/kg, po after 1 hr; type: ADME, organism-based, NIH3T3; design: dose 10 mg/kg, route oral
[23] = Antiinflammatory activity in human primary synovial fibroblasts assessed as inhibition of IL1-induced IL8 release after 18 hrs by MSD technology; type: functional

Compound: CCCN(c1ccccc1)S(=O)(=O)c1ccc(-c2ccc3c(cnn3-c3ccc(F)cc3)c2)c(C(F)(F)F)c1
IC50 (Glucocorticoid receptor [1]): 316 nM | IC50 (Progesterone receptor): > 10000 nM | IC50 (Glucocorticoid receptor [2]): 15.8 nM | EC50 (Glucocorticoid receptor [3]): 316 nM | IC50 (Androgen receptor): > 10000 nM

Compound: CC(C)N(c1ccccc1)S(=O)(=O)c1ccc(-c2ccc3c(cnn3-c3ccc(F)cc3)c2)c(C(F)(F)F)c1
IC50 (Glucocorticoid receptor [1]): 50.1 nM | IC50 (Progesterone receptor): > 2510 nM | IC50 (Glucocorticoid receptor [2]): 15.8 nM | EC50 (Glucocorticoid receptor [3]): 126 nM | IC50 (Androgen receptor): > 10000 nM

Compound: CCCCN(c1ccccc1)S(=O)(=O)c1ccc(-c2ccc3c(cnn3-c3ccc(F)cc3)c2)c(C(F)(F)F)c1
IC50 (Glucocorticoid receptor [1]): > 10000 nM | IC50 (Progesterone receptor): > 10000 nM | IC50 (Glucocorticoid receptor [2]): 25.1 nM | EC50 (Glucocorticoid receptor [3]): > 10000 nM | IC50 (Androgen receptor): > 10000 nM

Compound: C[C@@H]1C[C@H]2[C@@H]3CCC4=CC(=O)C=C[C@]4(C)[C@@]3(F)[C@@H](O)C[C@]2(C)[C@@]1(O)C(=O)CO [DEXAMETHASONE]
fold change (FC) [4]: 300 | IC50 [5]: 0.631 nM | inhibition in vivo at 10 mg/kg (Mus musculus [6]): 83% | fold change (FC) [7]: 8 | fold change (FC) [8]: 2944 | fold change (FC) [9]: 7 | inhibition in vivo at 1 mg/kg (Mus musculus [10]): 88% | fold change (FC) [11]: 0.4 | fold change (FC) [12]: 40 | inhibition in vivo at 0.1 mg/kg (Mus musculus [13]): 67% | concentration at 1 h [14]: 1800 nM | concentration at 1 h [15]: 44 nM | fold change (FC) [16]: 86 | IC50 [17]: 0.316 nM | inhibition in vivo at 0.01 mg/kg (Mus musculus [18]): 24% | Activity [19]: Toxic | Activity (Hepatocyte): Toxic | concentration at 1 h [20]: 236 nM | fold change (FC) [21]: 870 | concentration at 1 h [22]: 17700 nM | IC50 [23]: 0.501 nM

Other lines, results leading:

IC50 (Glucocorticoid receptor [1]): 63.1 nM | IC50 (Progesterone receptor): > 10000 nM | IC50 (Glucocorticoid receptor [2]): 50.1 nM | EC50 (Glucocorticoid receptor [3]): 200 nM | IC50 (Androgen receptor): 3980 nM
Compound: O=S(=O)(Nc1ccc(-c2ccc3c(cnn3-c3ccc(F)cc3)c2)c(C(F)(F)F)c1)c1cccc(C(F)(F)F)c1

IC50 (Glucocorticoid receptor [1]): 79.4 nM | IC50 (Progesterone receptor): > 10000 nM | IC50 (Glucocorticoid receptor [2]): 39.8 nM | EC50 (Glucocorticoid receptor [3]): 251 nM | IC50 (Androgen receptor): > 10000 nM
Compound: O=S(=O)(Nc1ccc(-c2ccc3c(cnn3-c3ccc(F)cc3)c2)c(C(F)(F)F)c1)c1cccc(OC(F)(F)F)c1

IC50 (Glucocorticoid receptor [1]): 126 nM | IC50 (Progesterone receptor): > 10000 nM | IC50 (Glucocorticoid receptor [2]): 15.8 nM | EC50 (Glucocorticoid receptor [3]): 200 nM | IC50 (Androgen receptor): > 10000 nM
Compound: CCN(c1ccccc1)S(=O)(=O)c1ccc(-c2ccc3c(cnn3-c3ccc(F)cc3)c2)c(C(F)(F)F)c1
